Tests used:
[1] = system: Colletotrichum lindemuthianum; test: Example O: Colletotrichum lindemuthianum in vitro cell test, formula (II); assay type: cell-based; settings: 144 h, 6 days incubation, read-out: efficacy (inhibition of fungal growth; no direct activity); for inhibition at 10 ppm: 10 ppm of active ingredient; for inhibition at 20 ppm: 20 ppm of active ingredient
Description: • Solvent: DMSO • Culture medium: 14.6 g anhydrous D-glucose (VWR), 7.1 g Mycological Peptone (Oxoid), 1.4 g granulated Yeast Extract (Merck), QSP 1 liter • Inoculum: spores suspension Fungicides were solubilized in DMSO and the solution used to prepare the required range of concentrations. The final concentration of DMSO used in the assay was: ≤[…]1%. A spore suspension of C. lindemuthianum was prepared and diluted to the desired spore density. Fungicides were evaluated for their ability to inhibit spores germination and mycelium growth in liquid culture assay. The compounds were added in the desired concentration to the culture medium with spores. After 6 days incubation, fungi-toxicity of compounds was determined by spectrometric measurement of mycelium growth. Inhibition of fungal growth was determined by comparing the absorbance values in wells containing the fungicides with the absorbance in control wells without fungicides.

[2] = system: Xanthomonas campestris pv. campestris; test: Example P: Xanthomonas campestris pv. campestris in vitro cell test, formula (II); assay type: cell-based; settings: 20 ppm of active ingredient, 24 h incubation, read-out: efficacy (inhibition of bacteria growth; no direct activity)
Description: • Solvent: DMSO • Culture medium: LB broth medium (Luria Broth Miller) Sigma • Inoculum: bacteria suspension
Compounds were solubilized in DMSO and the solution used to prepare the required range of concentrations. The final concentration of DMSO used in the assay was ≤1%.
Inoculum was prepared from a pre-culture of bacteria grown in liquid medium and diluted to the desired optical density (OD).
Compounds were evaluated for their ability to inhibit bacteria growth in liquid culture assay. The compounds were added in the desired concentrations to culture medium containing the bacteria suspension. After 24 h of incubation, the efficacy of compounds was determined by spectrometric measurement of bacteria growth. Inhibition was determined by comparing the absorbance values in wells containing the compounds with the absorbance in control wells without active ingredients.

[3] = Log P by HPLC on reversed phase columns (EEC directive 79/831 Annex V.A8); assay type: physicochemical; settings: for chromatographic logP: reversed phase HPLC columns
Summary of the method: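 Values come from retention times calibrated against alkan-2-ones (3–16 carbons) by linear interpolation, using reversed-phase LC-UV per EEC directive 79/831 Annex V.A8. Acetonitrile gradient 10–95% with 0.1% formic acid [a], 0.001 M ammonium acetate [b] or 0.1% phosphoric acid [c]; several values within one method separated by "+".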

[4] = system: salicylate responsive promoter sequence of the PR1 (pathogenesis-related protein I) gene (AT2G14610); test: Example A: induction of defense gene expression in Arabidopsis thaliana (PR1 promoter-GFP reporter plants), formula (I); assay type: in vivo; settings: 300 ppm, 3rd day after spraying, mock treated leaves = 1.00
Description: (§1) Arabidopsis thaliana reporter plants containing the coding sequence of a green fluorescent protein (GFP) linked to the salicylate responsive promoter sequence of the PR1 (pathogenesis-related protein I) gene (AT2G14610) were grown for five days and then sprayed with compounds. On the 3rd day after spraying, plant fluorescence was assessed with a MacroFluo instrument from Leica Microsystems (Wetzlar, Germany). Fluorescences were quantified with the Meta-Morph Microscopy Automation & Image Analysis Software (Molecular Devices, Sunnyvale, Calif., United States).
(§2) Background fluorescence in mock treated leaves was set as 1.00.

[5] = system: salicylate responsive promoter sequence of the PR1 (pathogenesis-related protein I) gene (AT2G14610); test: Example K: induction of defense gene expression in Arabidopsis thaliana (PR1 promoter-GFP reporter plants), formula (II); assay type: in vivo; settings: 300 ppm, 3rd day after spraying, mock treated leaves = 1.00
Description: as §1, §2

[6] = method [a]: LC-UV, acidic range, 0.1% formic acid in water and acetonitrile
[7] = value in preparation example, method not marked
[8] = method marker [a] given with each value, Table 1.1, compounds of formula (I)
[9] = method [a], compounds of formula (I), Table 1.1
[10] = LogP method [a], compounds of formula (I), Table 1.1

SMILES: Cc1c(C(=O)O)sc(C#N)c1Br [II.042, 4-bromo-5-cyano-3-methylthiophene-2-carboxylic acid]
- inhibition at 10 ppm [1]: ≤ 30%
- inhibition at 20 ppm [1]: ≤ 30%
- inhibition at 20 ppm [2]: ≤ 30%
- chromatographic logP [3, 6]: 2.01

SMILES: O=C(O)c1ccccc1O [Salicylic acid]
- relative fluorescence value [4]: 2.70
- relative fluorescence value [5]: 2.70

SMILES: COC(=O)c1sc(Cl)c(C#N)c1C [II.028, methyl 5-chloro-4-cyano-3-methylthiophene-2-carboxylate]
- inhibition at 10 ppm [1]: ≤ 30%
- inhibition at 20 ppm [1]: ≤ 30%
- inhibition at 20 ppm [2]: ≤ 30%
- chromatographic logP [3, 6]: 2.98
- chromatographic logP [3, 7]: 3.01

SMILES: COC(=O)c1cc(Cl)c(C#N)s1 [II.046, methyl 4-chloro-5-cyanothiophene-2-carboxylate]
- inhibition at 10 ppm [1]: ≤ 30%
- inhibition at 20 ppm [1]: ≤ 30%
- inhibition at 20 ppm [2]: ≤ 30%
- chromatographic logP [3, 6]: 2.52
- chromatographic logP [3, 7]: 2.52

SMILES: COC(=O)c1sc(Cl)c(Cl)c1C#N [II.085, methyl 4,5-dichloro-3-cyanothiophene-2-carboxylate]
- inhibition at 10 ppm [1]: ≤ 30%
- inhibition at 20 ppm [1]: ≤ 30%
- inhibition at 20 ppm [2]: ≤ 30%
- chromatographic logP [3, 6]: 2.98
- chromatographic logP [3, 7]: 2.98

SMILES: COC(=O)C(NC(=O)c1sc(Br)c(Br)c1C(F)F)C(=O)OC [1.1067]
- LogP [3, 8]: 3.05^[a]

SMILES: O=C(CNC(=O)c1sc(Br)c(Br)c1Cl)OC1CCOC1 (stereo not shown) [1.0677]
- LogP ([3]; method marked [a]): 2.84^[a]

SMILES: O=C(O)c1sc(Cl)c(Br)c1Br [II.011]
- LogP [3, 6]: 2.57^[a]

SMILES: CCOC(=O)CNC(=O)c1sc(Br)c(Cl)c1C [1.0072]
- LogP [3, 9]: 2.94^[a]

SMILES: COC(=O)C(NC(=O)c1sc(Cl)c(Cl)c1I)C1CC1 (stereo not shown) [1.0190]
- LogP ([3]; method [a]): 3.84^[a]

SMILES: CCOC(=O)C(CSC(C)=O)NC(=O)c1sc(Br)c(Br)c1F (stereo not shown) [1.0554]
- LogP ([3]; method [a]): 3.18^[a]

SMILES: CCOC(=O)CNC(=O)c1cc(Cl)c(Br)s1 [1.0461]
- LogP [3, 10]: 2.59^[a]

SMILES: COC(=O)C1(NC(=O)c2cc(Cl)c(F)s2)CC1 [1.0901]
- LogP ([3]; method [a]): 2.13^[a]

SMILES: Cc1c(C(=O)NC2CCSC2=O)sc(C#N)c1Br (stereo not shown) [I.0829]
- LogP [3, 6]: 2.45^[a]

SMILES: CCOC(=O)C1(NC(=O)c2cc(F)c(Br)s2)CC1 [1.0460]
- LogP [3, 10]: 2.51^[a]

SMILES: CCOC(=O)CCNC(=O)c1sc(Cl)c(Br)c1Cl [1.0179]
- LogP ([3]; method [a]): 3.54^[a]

SMILES: CCCOC(=O)C1(NC(=O)c2sc(Br)c(Cl)c2F)CC1 [1.0591]
- LogP ([3]; method [a]): 3.56^[a]

SMILES: CCOC(=O)C(CO)NC(=O)c1sc(Br)c(Cl)c1C (stereo not shown) [1.0844]
- LogP ([3]; method [a]): 2.60^[a]

SMILES: Cc1c(C(=O)NC2CCOC2=O)sc(C#N)c1Br (stereo not shown) [I.1034]
- LogP [3, 6]: 1.92^[a]

SMILES: CCOC(=O)c1cc(Cl)c(F)s1 [II.062]
- LogP [3, 6]: 3.63^[a]

SMILES: COC(=O)c1sc(Br)c(Br)c1C#N [II.069]
- LogP [3, 6]: 3.26^[a]

SMILES: CCOC(=O)CNC(=O)c1cc(C)c(Cl)s1 [1.0464]
- LogP [3, 10]: 2.33^[a]

SMILES: CCCCOC(=O)C1(NC(=O)c2sc(Cl)c(Cl)c2Br)CCC1 [1.0890]
- LogP ([3]; method [a]): 5.20^[a]

SMILES: COC(=O)C(CCSC)NC(=O)c1sc(Br)c(Br)c1F (stereo not shown) [1.0434]
- LogP [3, 10]: 3.57^[a]

SMILES: COC(=O)c1sc(Cl)c(C#N)c1Cl [II.022]
- LogP [3, 6]: 2.82^[a]

SMILES: O=C(NC(C(=O)O)C1CC1)c1sc(Cl)c(Cl)c1Br (stereo not shown) [1.0287]
- LogP ([3]; method marked [a]): 2.95^[a]

SMILES: CCOC(=O)CCNC(=O)c1sc(Cl)c(Cl)c1I [1.0189]
- LogP ([3]; method [a]): 3.47^[a]

SMILES: COC(=O)C1(NC(=S)c2sc(Br)c(Br)c2Cl)CC1 [1.0333]
- LogP ([3]; method marked [a]): 4.11^[a]

SMILES: Cc1c(C(=O)O)sc(F)c1Cl [II.101]
- LogP [3, 6]: 2.45^[a]

SMILES: N#CC1(NC(=O)c2sc(Br)c(Br)c2F)CCC1 [1.0116]
- LogP [3, 9]: 3.11^[a]

SMILES: Cc1c(C(=O)NC(C(=O)O)C2CC2)sc(Cl)c1Br (stereo not shown) [1.0255]
- LogP ([3]; method [a]): 2.67^[a]

SMILES: CC(C)(NC(=O)c1sc(Cl)c(Cl)c1Br)C(=O)O [1.1024]
- LogP [3, 8]: 2.80^[a]

SMILES: CCOC(=O)C(CCSC)NC(=O)c1cc(F)c(Cl)s1 (stereo not shown) [1.0310]
- LogP ([3]; method marked [a]): 3.25^[a]

SMILES: COC(=O)C(Cc1ccccc1)NC(=S)c1sc(Br)c(Br)c1F (stereo not shown) [1.0497]
- LogP [3, 10]: 5.32^[a]

SMILES: CCOC(=O)C1(NC(=O)c2sc(Cl)c(Br)c2C#N)CC1 [1.0585]
- LogP ([3]; method [a]): 2.70^[a]

SMILES: N#Cc1sc(C(=O)O)c(Br)c1Br [II.061]
- LogP [3, 6]: 1.66^[a]

SMILES: CCOC(=O)C(CO)NC(=O)c1sc(Br)c(Br)c1F (racemic) [1.0012]
- LogP [3, 9]: 2.51^[a]

SMILES: CCSC(=O)C(NC(=O)c1sc(Br)c(Br)c1Cl)C(C)C (stereo not shown) [1.0998]
- LogP [3, 8]: 5.45^[a]

SMILES: COC(=O)C(NC(=O)c1sc(Cl)c(Br)c1C)C1CC1 (stereo not shown) [1.0119]
- LogP [3, 9]: 3.39^[a]

SMILES: O=C(NC1(C(=O)O)CC1)c1sc(Br)c(Cl)c1F [1.0703]
- LogP ([3]; method marked [a]): 2.14^[a]

SMILES: CCOC(=O)C1(NC(=O)c2sc(C#N)c(Br)c2Cl)CC1 [1.0606]
- LogP ([3]; method [a]): 2.79^[a]

SMILES: COC(=O)[C@H](CC(=O)O)NC(=O)c1sc(Cl)c(Cl)c1Br [1.1044]
- LogP [3, 8]: 2.58^[a]
